Data reported in patent publication US6921775B2, “Methods for modulating brain damage” (Children's Medical Center Corporation, priority 2001, dated 2005).

How the values were obtained:
[1] = tested on: A2B5+ OL precursor cells; experiment: Cell proliferation (BrdU incorporation) in OL precursor cultures; type: cell-based, rat; settings: topiramate 30 μM, NBQX 100 μM; 24 hours, BrdU last 2 hours
Procedure: Primary oligodendrocyte precursor cells were isolated from mixed glial cultures of the forebrains of newborn Sprague-Dawley rats using a selective detachment procedure as described in detail elsewhere (McCarthy and de Vellis, 1980; Back et al., 1998), and further purified by differential adhesion (Back et al., 1998). Precursor cells were maintained in a chemically-defined medium (CDM) supplemented with recombinant human platelet derived growth factor-AA (PDGF, 10 ng/ml) and basic fibroblast growth factor (bFGF, 10 ng/ml). […]
Cell proliferation was measured by determining the incorporation of the thymidine analog 5-bromo-2′-deoxyuridine (BrdU, […]) into replicating DNA of cells during the last 2 hr of the experiment. […] After the cells were incubated in a solution containing 2% BSA and 0.2% Triton X-100 for 30 min, BrdU incorporation was detected employing a murine monoclonal anti-BrdU antibody (Chemicon) and FITC-conjugated goat anti-mouse IgG. Quantitative analysis was performed by determining the percent of BrdU^+ cells in the A2B5^+ population. […] All assays were performed in triplicate and at least 1000 cells counted for each data point.
The proliferative capability of the cells was measured by the incorporation of the thymidine analog BrdU into DNA. […] A quantitative analysis was obtained by counting the number of BrdU^+ cells in the A2B5^+ population and calculating a percent. […]

[2] = tested on: OL precursor cells; experiment: Kainate-induced excitotoxicity in OL precursor cultures (trypan blue cell viability); type: cell-based, rat; settings: 300 μM kainate; for concentration giving significant reduction of kainate-induced cell death: cell survival assessed 24 hr later
Procedure: Primary oligodendrocyte precursor cells were isolated from mixed glial cultures of the forebrains of newborn Sprague-Dawley rats using a selective detachment procedure as described in detail elsewhere (McCarthy and de Vellis, 1980; Back et al., 1998), and further purified by differential adhesion (Back et al., 1998). Precursor cells were maintained in a chemically-defined medium (CDM) supplemented with recombinant human platelet derived growth factor-AA (PDGF, 10 ng/ml) and basic fibroblast growth factor (bFGF, 10 ng/ml). The CDM was Dulbecco Modified Eagle's Medium (DMEM) containing D-glucose (25 mM), L-glutamine (4 mM), sodium pyruvate (1 mM), human apo-transferrin (50 μg/ml), bovine pancreatic insulin (5 μg/ml), sodium selenium (30 nM), hydrocortisone (10 nM), D-biotin (10 nM), and bovine serum albumin (BSA, 1 mg/ml). All chemicals were from Sigma. Precursor cells were maintained in the presence of growth factors (PDGF+bFGF) by refeeding with fresh medium every 48 hr for 7 days, to promote cell proliferation and prevent differentiation (Bogler et al., 1990). Experiments were performed with cultures maintained in CDM without the supplemental growth factors. These cultures were routinely characterized by immunochemical detection of cell-specific markers as described before (Back et al., 1998). Cultures at the beginning of experiments usually consisted of approximately 90% A2B5^+ oligodendrocyte precursors and less than 5% glial fibrillary acidic protein (GFAP)-positive astrocytes. Cells were plated on poly-DL-ornithine-coated 24-well plates for cell viability assays and on coated glass coverslips for immunocytochemistry, proliferation studies, and lineage analysis. Kainic acid (Sigma-RBI) were first dissolved in 0.1N HCl, and cyclothiazide (Sigma) in 0.1N NaOH, then added to culture medium to the desired final concentration. The pH of the culture media was maintained at 7.4. Topiramate (RWJ Pharmaceutical Research Institute) and NBQX (Sigma-RBI) were directly dissolved in culture medium and applied 10 min prior to exposure of the cells to kainate or oxygen-glucose deprivation (OGD). Following exposure to kainate or OGD for 24 hr, cell death was quantitatively assessed using the trypan blue exclusion method (Perry et al., 1997). Cells in 5-7 adjacent fields (×200) per well were counted to determine cell survival. At least 1000 cells per condition were counted in control cultures. The mean±SEM values for each experimental group were obtained from at least three separate experiments, and each was performed in triplicate. […] OGD has been previously shown to cause non-NMDA receptor-mediated ischemic cell death in a similar culture model (Fern and Moller, 2000). […] Cell survival was assessed 24 hr later.

| SMILES | rate of BrdU incorporation (% BrdU+/A2B5+) [1] | concentration giving significant reduction of kainate-induced cell death [2] [µM] | cell survival ([2]; topiramate 50-100 μM, 24 hr) | protection against kainate-induced cell death at 50 μM ([2]; 50 μM NBQX, 24 hr) |
| --- | --- | --- | --- | --- |
| CC1(C)O[C@@H]2[C@@H](CO[C@@]3(COS(N)(=O)=O)OC(C)(C)O[C@@H]23)O1 [topiramate] | Neither topiramate or NBQX altered the rate of BrdU incorporation | ≥ 30 | approximately 70% |  |
| NS(=O)(=O)c1cccc2c1c([N+](=O)[O-])cc1nc(O)c(O)nc12 [NBQX, 2,3-Dioxo-6-nitro-1,2,3,4-tetrahydrobenzo[f]quinoxaline-7-sulphonamide] | Neither topiramate or NBQX altered the rate of BrdU incorporation | ≥ 10 |  | fully protective |
